Data on two compounds can be found in patent US20050053916A1, “Diagnostic for long term response of HBV carrier to 3TC therapy” (priority 2002, published 2005).

For test [1], the system named is serum alanine transaminase (ALT). Briefly: Biochemical response (serum ALT) in chronic hepatitis B patients on long-term lamivudine therapy. Type of test: in vivo, human. The following applies: for No. of patients with ALT elevation / No. of patients with Sustained ALT Normalization: outcome summary. The procedure:
All patients had detectable HBV DNA by polymerase chain reaction (PCR) assay (HBV Monitor, Roche Diagnostics, Inc.) and by solution hybridization assay (Abbott Diagnostics, Inc.) at baseline and for at least 6 months before therapy. […] Patients were negative for hepatitis C, hepatitis D, or human immunodeficiency virus antibodies, and there were no evidences of autoimmune hepatitis. None of the patients were treated with interferon or other antiviral agents, such as famciclovir or adefovir dipovoxil, during the study or within six months before the beginning of lamivudine treatment.
(§1) All patients were followed with monthly clinical examination and routine laboratory tests.
Blood test—An aliquot of serum was collected at each visit and stored at −70° C. until used for analysis.
HBV serologic markers were tested by commercial enzyme immunoassay kits: HBeAg and anti-HBeAg (DiaSorin, Italy), and HBsAg (Abbott Laboratories, Inc.). Serum samples were also evaluated for routine biochemical markers of liver disease, including ALT.
(§2) Definitions—“Responder” patients were classified as attaining both a biochemical and virological response: normalization of ALT values and the absence of serum HBV DNA by Monitor™ PCR in two consecutive determinations during treatment. “Breakthrough” was defined as those patients in who HBV DNA reappeared by Monitor™ PCR assay after an initial antiviral response (serum HBV DNA negative by Monitor™ PCR), eventually associated with an increase of ALT levels greater than 1.5× the upper limit of normal (35 IU/L).

Test [2] relates to HBV. Briefly: Virological response (serum HBV DNA, HBV Monitor PCR) in chronic hepatitis B patients on long-term lamivudine therapy. Type of test: in vivo, human. To be noted: for virologic breakthrough observed, number of patients: of 12 breakthrough patients.
Source text: All patients had detectable HBV DNA by polymerase chain reaction (PCR) assay (HBV Monitor, Roche Diagnostics, Inc.) and by solution hybridization assay (Abbott Diagnostics, Inc.) at baseline and for at least 6 months before therapy. […] Patients were negative for hepatitis C, hepatitis D, or human immunodeficiency virus antibodies, and there were no evidences of autoimmune hepatitis.
as §1
Serum HBV DNA for the evaluation of response to treatment was analyzed by the HBV Monitor™ assay (Roche Diagnostic, Inc.) with a detection limit of 100 copies/ml, and a solution hybridization assay (Abbott Laboratories, Inc.) with a detection limit of 10 pg/ml.
as §2

The test system of test [3] is HBV. The following applies: after 16 weeks or more of treatment; HBeAg positive candidates; cited from earlier work.
Setting [4] is: individual breakthrough (BK) patients, row order Pt #4, 5, 8, 10, 12, 13, 16, 17, 19, 20, 24, 26, 27-53 months of treatment.
The mark [5] stands for this setting: individual non-responder (NR) patients, row order Pt #3, 6, 9, 11, 15, 21, 22, 33-47 months of treatment.
Setting [6] is: after a minimum of 27 months of therapy, 26 patients.

“And” between values parts separate entries of the source, which are not always exact repeats. Equal values may be shown once. “Also recorded” adds a separate entry of the source.

Take `Nc1ccn([C@@H]2CS[C@H](CO)O2)c(=O)n1` [lamivudine]: in test [1] (by week 24 of treatment, 13 of 26 patients, lamivudine orally 100 mg daily), the “patients in whom serum ALT normalized” value is recorded as 50%. The “ALT (IU/L), treatment (last follow up)” value in test [1] (setting [4]) is 9 IU/L (2×) and 5 IU/L (3×) and 21 IU/L and 75 IU/L and 81 IU/L and 51 IU/L and 80 IU/L and 2 IU/L and 4 IU/L; in test [1] (setting [5]), 68 IU/L and 37 IU/L and 4 IU/L (2×) and 66 IU/L and 74 IU/L and 85 IU/L; in test [1] (individual responder (R) patients, row order Pt #1, 2, 7, 14, 18, 23, 25, 27-50 months of treatment, upper limit of normal 35 IU/L), 30 IU/L and 24 IU/L (2×) and 20 IU/L and 18 IU/L and 21 IU/L and 16 IU/L. Moreover, the entries for the “No. of patients with ALT elevation” value in test [1] (Breakthrough group (12 pts)), in test [1] (Non-responder group (7 pts)) and in test [1] (Responder group (7 pts)) were 5, 7 and 7, respectively. Also, the results for the “No. of patients with Sustained ALT Normalization” value in test [1] (Breakthrough group (12 pts)), in test [1] (Non-responder group (7 pts)) and in test [1] (Responder group (7 pts)) were 7, 0 and 0, respectively. For the same compound, the “virologic breakthrough observed, number of patients” value in test [2] (after 12 months of therapy) came to 6 patients; in test [2] (between 12 and 18 months of therapy) it was 5 patients. In addition, the “patients who were breakthroughs” value in test [2] (setting [6]) was 46%. Also, the “patients who were non-responders” value in test [2] (setting [6]) was determined as 27%. Moreover, in test [2] (setting [6]), the “patients who were responders” value is given as 27%. In addition, the “patients in whom HBV DNA became undetectable” value in test [2] (by week 24 of treatment, 19 of 26 patients, lamivudine orally 100 mg daily) was found to be 73%. For the same compound, the “HBV DNA (log10/ml), treatment (last follow up)” value was 5.00 log10/ml and 5.31 log10/ml and 5.17 log10/ml and 6.20 log10/ml and 5.67 log10/ml and 6.62 log10/ml and 5.88 log10/ml and 4.54 log10/ml and 6.08 log10/ml and 7.02 log10/ml and 6.18 log10/ml in test [2] (setting [4]); 4.25 log10/ml and 4.55 log10/ml and 6.11 log10/ml (2×) and 7.28 log10/ml and 5.19 log10/ml and 6.19 log10/ml in test [2] (setting [5]); “ud* (undetectable, limit of detection 1000 copies/ml); also recorded: ud (undetectable, limit of detection 1000 copies/ml)” in test [2] (individual responder (R) patients, row order Pt #1, 2, 7, 14, 18, 23, 25, 27-50 months of treatment). In addition, in test [2] (outcome summary (26 pts)), the “No. of Patients (%), Breakthrough” value is 12 (46%). Besides, the “No. of Patients (%), Non-responder” value in test [2] (outcome summary (26 pts)) is on record as 7 (27%). The “No. of Patients (%), Responder” value in test [2] (outcome summary (26 pts)) is on record as 7 (27%).

Turning to interferon-alpha, in test [3], the “individuals who lose serum HBeAg” value is “about 40%”.
